# Laboratory results as given in patent US11375708B2, “Methods and apparatus for management of mosquito populations with habitat sharing heterospecific insects carrying insect growth regulators” (Rutgers, The State University of New Jersey, priority 2015, dated 2022).
# Tested on: Aedes albopictus
# Test: Room (30 m^3) release of 20 treated Chironomus against 10 sentinel cups, mosquito pupal mortality
# Type: in vivo
# Details: 20 treated Chironomus released in 30 m^3 room, 2 days (48 hour exposure), 10 cups each with 250 ml oak infusion
# Description: FIG. 2. Mosquito pupal mortality achieved by releasing oil treated 20 Chironomus adults in a 30 m^3 room for 2 days against 10 sentinel cups. The average pupal mortality of Aedes albopictus was 88±3.5%.
# Chironomus females don't need blood feeding and the larvae are easy to culture. […] The larvae developed in cryptic sentinel cups indicated the treated female has visited the cup and laid eggs. In the same cup, pupal mortality of Aedes albpictus indicated the pyriproxyfen transfer (FIG. 5). We further challenged the technology in a meshed tunnel (50×3×2 m) setup in the field with 10 cryptic sentinel cups inside (FIG. 7) by releasing 50 treated C. decorus females for 5 days. […] The backyard experiment was conducted by treating 800 chironomid adults with oil formulation (20% a.i) first and followed with powder formulation (60% a.i) at a separate location to avoid contamination. In this experiment, the active ingredient (a.i.) was pyriproxyfen. In order to avoid any dew effect, release time was in the afternoon between 2 to 5 pm. […]
# Adults (males and females) of C. decorus (0 to 2 days old) will be collected and stored in a cage constructed with metal window screen. […] The cage with contaminated Chironomus then will be removed from the bottom of the chamber and ready for release in cases where only oil treatment is desired. […]
smiles,measurement,value
CC(COc1ccc(Oc2ccccc2)cc1)Oc1ccccn1 (stereo not shown) [pyriproxyfen],average pupal mortality of Aedes albopictus,88.5±3.5%
